Several values for one entry are separate records, joined by “and”; a condition that tells them apart may be missing. Equal values may be shown once.
How the values were obtained:
[1] = tested on: red blood cells; conditions: in vivo, po
Experimental: In this test, paprika carotenoids rich in carotenoids having 3,6-epoxy end groups or 5-membered ring end groups were orally administered to an adult, and cucurbitaxanthin A, capsanthin, capsorubin, and capsanthin 3,6-epoxide were evaluated for their ability to migrate into red blood cells. A specific testing method was as described below.
Initially, 15 g of a paprika pigment emulsified preparation (PapriX; total amount of carotenoids: 10 mg/g) from Glico Nutrition Co., Ltd., 30 g of dextrin, 70 g of sugar, and 3 g of citric acid were dissolved in 1 L of water to prepare a test beverage containing the paprika carotenoids. The paprika pigment emulsified preparation contained 0.053 mass % of cucurbitaxanthin A, 0.40 mass % of capsanthin, 0.021 mass % of capsorubin, and 0.034 mass % of capsanthin 3,6-epoxide, and the test beverage contained 0.00079 mass % of cucurbitaxanthin A, 0.0060 mass % of capsanthin, 0.00031 mass % of capsorubin, and 0.00051 mass % of capsanthin 3,6-epoxide.
Before the beginning of the ingestion and after 4 weeks from the ingestion, blood was collected to obtain blood samples. Red blood cells were separated from the obtained blood samples, and the carotenoids (capsanthin 3,6-epoxide, cucurbitaxanthin A, capsanthin, and capsorubin) present in red blood cells were quantified by HPLC.

[2] = tested on: red blood cells; conditions: cited from earlier work
[3] = 30 healthy males and females, oral administration for 12 weeks

SMILES | ability to migrate into red blood cells (migration ratio into red blood cells) [1] | astaxanthin in the red blood cells [2, 3] | lipid peroxides in the red blood cells [2, 3] | migration ratio into red blood cells ([2]; day 84 after the ingestion, calculated from literature disclosure)
CC1=C(/C=C/C(C)=C/C=C/C(C)=C/C=C/C=C(C)/C=C/C=C(C)/C=C/C(=O)[C@]2(C)C[C@@H](O)CC2(C)C)C(C)(C)C[C@H](O)C1 [capsanthin] | little migration into red blood cells |  |  | 
CC(/C=C/C=C(C)/C=C/C(=O)[C@]1(C)C[C@@H](O)CC1(C)C)=C\C=C\C=C(C)\C=C\C=C(C)\C=C\[C@@]12O[C@@H](CC1(C)C)C[C@@]2(C)O [capsanthin 3,6-epoxide] | little migration into red blood cells |  |  | 
CC(/C=C/C=C(C)/C=C/C(=O)[C@]1(C)C[C@@H](O)CC1(C)C)=C\C=C\C=C(C)\C=C\C=C(C)\C=C\C(=O)[C@]1(C)C[C@@H](O)CC1(C)C [capsorubin] | little migration into red blood cells |  |  | 
CC1=C(/C=C/C(C)=C/C=C/C(C)=C/C=C/C=C(C)/C=C/C=C(C)/C=C/[C@@]23O[C@@H](CC2(C)C)C[C@@]3(C)O)C(C)(C)C[C@H](O)C1 [cucurbitaxanthin A, (3S,3′R,5R,6R)-3,6-epoxy-5,6-dihydro-β,β-carotene-3′,5-diol] | markedly high ability to migrate into red blood cells |  |  | 
CC1=C(/C=C/C(C)=C/C=C/C(C)=C/C=C/C=C(C)/C=C/C=C(C)/C=C/C2=C(C)C(=O)[C@@H](O)CC2(C)C)C(C)(C)C[C@H](O)C1=O [astaxanthin] |  | an increase in astaxanthin | a decrease in lipid peroxides | 0.0089% and 0.0057%
